From ChEMBL document CHEMBL3352625, “Development of novel neurokinin 3 receptor (NK3R) selective agonists with resistance to proteolytic degradation” (J Med Chem, 2014) come the findings set out here.

Data set [1] concerns the target T1, Neprilysin (Homo sapiens, UniProt P08473). As to the kind of experiment: Drug metabolism assessed as NEP 24.11 (unknown origin)-mediated H-Leu-Met-NH2 up to 24 hrs by HPLC analysis. It is filed as ADME.
Data set [2] can be described thus: Metabolic stability in goat serum up to 24 hrs by HPLC analysis. It is filed as ADME, Capra hircus.
Data set [3] has as its system Serum. In words: Metabolic stability in rat serum up to 24 hrs by HPLC analysis. It is filed as ADME, cell-free.
Data set [4] in a line: Metabolic stability in pig serum up to 24 hrs by HPLC analysis. It is filed as ADME, Sus scrofa.
Data set [5] in a line: Agonist activity at cattle NK3R. On the set-up: species or system Bos taurus.
A short description of data set [6]: Agonist activity at goat NK3R. More on the design: species or system Capra hircus.
The target in a further data set is NEP 24.11 (neprilysin) (Homo sapiens, UniProt P08473). In words: Drug metabolism assessed as NEP 24.11 (unknown origin)-mediated degradation up to 24 hrs by HPLC analysis. Conditions: NEP 24.11 (neprilysin) enzyme, read-out: Drug metabolism. It is filed as ADME.
Chain of NEP 24.11 (neprilysin) (P08473 whole entry): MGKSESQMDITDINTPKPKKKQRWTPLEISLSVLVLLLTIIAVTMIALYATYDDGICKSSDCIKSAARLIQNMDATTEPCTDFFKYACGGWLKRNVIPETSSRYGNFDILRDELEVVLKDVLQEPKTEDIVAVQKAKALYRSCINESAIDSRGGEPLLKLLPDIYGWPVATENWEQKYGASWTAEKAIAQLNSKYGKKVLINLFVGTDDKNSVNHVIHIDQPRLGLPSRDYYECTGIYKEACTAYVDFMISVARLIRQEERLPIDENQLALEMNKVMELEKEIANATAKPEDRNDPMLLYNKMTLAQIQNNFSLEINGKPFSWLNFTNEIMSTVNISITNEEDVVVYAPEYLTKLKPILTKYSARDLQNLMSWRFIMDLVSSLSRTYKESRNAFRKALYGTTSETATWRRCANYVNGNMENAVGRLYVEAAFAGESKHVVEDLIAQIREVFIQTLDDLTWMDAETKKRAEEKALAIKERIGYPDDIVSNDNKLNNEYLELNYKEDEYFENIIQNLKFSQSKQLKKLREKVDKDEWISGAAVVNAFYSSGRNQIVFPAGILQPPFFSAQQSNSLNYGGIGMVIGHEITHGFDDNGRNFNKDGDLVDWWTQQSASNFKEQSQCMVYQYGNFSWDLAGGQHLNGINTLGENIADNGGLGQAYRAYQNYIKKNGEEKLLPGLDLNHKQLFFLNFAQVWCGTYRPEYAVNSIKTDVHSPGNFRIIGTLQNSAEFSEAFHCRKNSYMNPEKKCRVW
The subject of data set [7] is Serum. As to the kind of experiment: Metabolic stability in cattle serum up to 24 hrs by HPLC analysis. It is filed as ADME, Bos taurus.
Data set [8] deals with T1, Neprilysin. In words: Drug metabolism assessed as NEP 24.11 (unknown origin)-mediated Succinyl-Asp-Phe-MePhe-Gly-OH up to 24 hrs by HPLC analysis. It is filed as ADME.
A short description of data set [9]: Induction of GnRH release in ovariectomized goat assessed as induction of multiple-unit activity volley measured as duration of effect at 200 nmol, iv as single dose. It is filed as functional, Capra hircus.
Data set [10] is described as follows: Metabolic stability in pig hypothalamic extract by HPLC analysis. It is filed as ADME, Sus scrofa, Hypothalamus.
Data set [11] can be described thus: Drug metabolism in pig hypothalamic extract assessed as peptide H-Phe-MePhe-Gly-Leu-Met-OH formation by HPLC analysis. It is filed as ADME, Sus scrofa, Hypothalamus.
The nature of data set [12]: Drug metabolism in goat serum assessed as peptide H-Phe-MePhe-Gly-Leu-Met-NH2 formation by HPLC analysis. It is filed as ADME, cell-free, Capra hircus.
A short description of data set [13]: Drug metabolism in pig serum assessed as peptide H-Asp-Phe-Phe-MePhe-Gly-Leu-Met-NH2 formation by HPLC analysis. It is filed as ADME, cell-free, Sus scrofa.
Data set [14] has as its system Serum. As to the kind of experiment: Drug metabolism in cattle serum assessed as peptide H-His-Asp-Phe-Phe-MePhe-Gly-Leu-Met-NH2 formation by HPLC analysis. It is filed as ADME, cell-free, Bos taurus.
Data set [15] relates to Serum. In words: Drug metabolism in rat serum assessed as peptide H-Phe-MePhe-Gly-Leu-Met-OH formation by HPLC analysis. It is filed as ADME, cell-free.
The subject of data set [16] is Serum. As to the kind of experiment: Drug metabolism in rat serum assessed as peptide H-Asp-Phe-Phe-MePhe-Gly-Leu-Met-NH2 formation by HPLC analysis. It is filed as ADME, cell-free.
The test system of data set [17] is Serum. As to the kind of experiment: Drug metabolism in rat serum assessed as peptide H-Phe-MePhe-Gly-Leu-Met-NH2 formation by HPLC analysis. It is filed as ADME, cell-free.
A short description of data set [18]: Drug metabolism in pig hypothalamic extract assessed as peptide H-Met-His-Asp-Phe-Phe-MePhe-Gly-Leu-Met-NH2 formation by HPLC analysis. It is filed as ADME, Sus scrofa, Hypothalamus.
Data set [19] is described as follows: Drug metabolism in pig hypothalamic extract assessed as peptide H-Phe-Phe-MePhe-Gly-Leu-Met-NH2 formation by HPLC analysis. It is filed as ADME, Sus scrofa, Hypothalamus.
Data set [20] in a line: Drug metabolism in pig hypothalamic extract assessed as peptide H-Phe-MePhe-Gly-OH formation by HPLC analysis. It is filed as ADME, Sus scrofa, Hypothalamus.
A short description of data set [21]: Drug metabolism in goat serum assessed as peptide H-Asp-Phe-Phe-MePhe-Gly-Leu-Met-NH2 formation by HPLC analysis. It is filed as ADME, cell-free, Capra hircus.
The nature of data set [22]: Drug metabolism in pig hypothalamic extract assessed as peptide H-Asp-Phe-Phe-MePhe-Gly-Leu-Met-NH2 formation by HPLC analysis. It is filed as ADME, Sus scrofa, Hypothalamus.
The subject of data set [23] is Serum. In words: Drug metabolism in rat serum assessed as H-His-Asp-Phe-Phe-MePhe-Gly-Leu-Met-NH2 2 formation by HPLC analysis. It is filed as ADME, cell-free.
Data set [24] can be described thus: Drug metabolism in pig serum assessed as peptide H-His-Asp-Phe-Phe-MePhe-Gly-Leu-Met-NH2 formation by HPLC analysis. It is filed as ADME, cell-free, Sus scrofa.
The nature of data set [25]: Drug metabolism in pig hypothalamic extract assessed as peptide H-His-Asp-Phe-Phe-MePhe-Gly-Leu-Met-NH2 formation by HPLC analysis. It is filed as ADME, Sus scrofa, Hypothalamus.
For data set [26], the system named is Serum. In words: Drug metabolism in cattle serum assessed as peptide H-Asp-Phe-Phe-MePhe-Gly-Leu-Met-NH2 formation by HPLC analysis. It is filed as ADME, cell-free, Bos taurus.
A short description of data set [27]: Drug metabolism in pig hypothalamic extract assessed as peptide H-Phe-MePhe-Gly-Leu-Met-NH2 formation by HPLC analysis. It is filed as ADME, Sus scrofa, Hypothalamus.
Data set [28] addresses T2, Neuromedin-K receptor (Homo sapiens, UniProt P29371).
T2 sequence (P29371 whole entry): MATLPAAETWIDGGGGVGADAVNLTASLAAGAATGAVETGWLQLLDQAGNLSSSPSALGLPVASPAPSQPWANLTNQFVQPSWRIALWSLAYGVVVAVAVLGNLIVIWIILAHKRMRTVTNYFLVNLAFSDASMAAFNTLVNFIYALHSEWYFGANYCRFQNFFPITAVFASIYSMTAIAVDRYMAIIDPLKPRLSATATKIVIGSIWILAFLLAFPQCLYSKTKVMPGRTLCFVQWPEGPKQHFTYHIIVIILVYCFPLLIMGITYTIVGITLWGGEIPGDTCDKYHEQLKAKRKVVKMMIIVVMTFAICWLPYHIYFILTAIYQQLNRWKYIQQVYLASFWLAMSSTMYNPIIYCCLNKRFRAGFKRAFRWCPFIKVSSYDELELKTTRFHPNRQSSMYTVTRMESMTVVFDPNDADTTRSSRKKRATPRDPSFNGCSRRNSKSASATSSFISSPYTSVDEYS
In words: Displacement of [125I]His3, MePhe7 from human NK3R expressed in CHO cell membranes by scintillation counting. In general terms: In a radioligand displacement assay an active substance lowers the binding of a labelled ligand.

The test system of data set [29] is Serum. In words: Drug metabolism in cattle serum assessed as peptide H-Phe-MePhe-Gly-Leu-Met-NH2 formation by HPLC analysis. It is filed as ADME, cell-free, Bos taurus.
Data set [30] addresses T2, Neuromedin-K receptor. In words: Agonist activity at human NK3R expressed in CHO cells assessed as induction of Ca2+ influx […]. It is filed as functional, cell-based.
A short description of data set [31]: Drug metabolism in pig serum assessed as peptide H-Phe-MePhe-Gly-Leu-Met-NH2 formation by HPLC analysis. It is filed as ADME, cell-free, Sus scrofa.
The nature of data set [32]: Drug metabolism in goat serum assessed as peptide H-His-Asp-Phe-Phe-MePhe-Gly-Leu-Met-NH2 formation by HPLC analysis. It is filed as ADME, cell-free, Capra hircus.

Where a SMILES comes first, the peptide text is derived from it. [ ]: non-standard residue; d: D form. NMeF = CN[C@@H](Cc1ccccc1)C(=O)O Where only a bound is given, the exact number is not on record here.

T1 sequence (P08473 whole entry): as the sequence (P08473 whole entry) above

As a reminder, the EC50 is the midpoint of the concentration-response curve. As for `CSCC[C@H](NC(=O)[C@H](CC(C)C)NC(=O)CNC(=O)[C@H](Cc1ccccc1)N(C)C(=O)[C@H](Cc1ccccc1)NC(=O)[C@H](CC(=O)O)NC(=O)CCC(=O)O)C(N)=O` [SENKTIDE], the Drug metabolism entry at Neprilysin [1] and at Neprilysin [8] was “metabolite_detected” throughout. The Stability entry (in data set [2]; in the data set with Serum [3]; in data set [4]; in the data set on Serum [7]; in data set [10]) was “Stable” throughout. The EC50 in [5] came to 340 nM; in data set [6], 12 nM. Besides, at NEP 24.11 (neprilysin), the metabolised at 24 h is over 80%. For the same molecule, the Time in [9] is 60.6 min.
What is called IC50 is the concentration that gives 50% inhibition. With `CSCC[C@H](NC(=O)[C@H](CC(C)C)NC(=O)CNC(=O)[C@H](Cc1ccccc1)N(C)C(=O)[C@H](Cc1ccccc1)NC(=O)[C@H](Cc1ccccc1)NC(=O)[C@H](CC(=O)O)NC(=O)[C@H](Cc1cnc[nH]1)NC(=O)[C@H](CCSC)NC(=O)[C@@H](N)CC(=O)O)C(N)=O` (H-DMHDFF[NMeF]GLM-NH2), the Drug metabolism result (in [11]; in [12]; in [13]; with Serum [14]; in the data set on Serum [15]; with Serum [16]) was “metabolite_detected” each time. In addition, the Drug metabolism result in the data set on Serum [17] is given as “metabolite_detected”; in [18], “metabolite_notdetected”; in data set [19], “metabolite_notdetected”; in [20], “metabolite_detected”; in data set [21] it was “metabolite_detected”; in data set [22] it was “metabolite_notdetected”. The Drug metabolism entry is “metabolite_detected” with Serum [23]; “metabolite_detected” in data set [24]; “metabolite_notdetected” in data set [25]; “metabolite_detected” in the data set with Serum [26]; “metabolite_detected” in [27]; “metabolite_detected” with Serum [29]. The Drug metabolism entry in [31] and in [32] was “metabolite_detected” throughout. The 50% inhibitory concentration (IC50) at Neuromedin-K receptor [28] came out at 12 nM. In addition, the EC50 on Neuromedin-K receptor [30] was determined as 64 nM.
